This note sets out measurements from patent US20060173048A1, “Imidazole derivatives” (priority 2005, published 2006).

Structures are written as SMILES.

A word on the melting point: it is the temperature of the solid-liquid transition.

As to `CCn1c(-c2ccnc3ccccc23)nc(-c2ccncc2)c1-c1ccc(Cl)cc1` [Example 32, 4-[5-(4-Chloro-phenyl)-1-ethyl-4-pyridin-4-yl-1H-imidazol-2-yl]-quinoline], the melting point is 167 to 169 °C.

Molecule `CCn1c(-c2c(C)cc(C)cc2C)nc(-c2ccncc2)c1-c1ccc(C)cc1` [Example 4, 4-[1-Ethyl-5-(4-methyl-phenyl)-2-(2,4,6-trimethyl-phenyl)-1H-imidazol-4-yl]-pyridine] registered a melting point of 137 to 140 °C.

In the case of `CCn1c(C(O)(c2cccc(F)c2)c2cccc(F)c2)nc(-c2ccncc2)c1-c1ccc(Cl)cc1` [Example 46, [5-(4-Chloro-phenyl)-1-ethyl-4-pyridin-4-yl-1H-imidazol-2-yl]-bis-(3-fluoro-phenyl)-methanol], the melting point was 225 to 227 °C.

Turning to `CCn1c(C(c2ccccc2)c2ccccc2)nc(-c2ccncc2)c1-c1ccc(Cl)cc1` [Example 39, 4-[2-Benzhydryl-5-(4-chloro-phenyl)-1-ethyl-1H-imidazol-4-yl]-pyridine], the melting point was 199 to 200 °C.

In turn, `CCn1c(-c2c(C)cccc2C)nc(-c2ccncc2)c1-c1ccc(Cl)cc1` [Example 14, 4-[5-(4-Chloro-phenyl)-2-(2,6-dimethyl-phenyl)-1-ethyl-1H-imidazol-4-yl]-pyridine] returned a melting point of 171 to 173 °C.

Turning to `CCn1c(-c2c(C)cc(C)cc2C)nc(-c2ccncc2)c1-c1ccc(C(C)(C)C)cc1` [Example 7, 4-[5-(4-tert-Butyl-phenyl)-1-ethyl-2-(2,4,6-trimethyl-phenyl)-1H-imidazol-4-yl]-pyridine], the melting point is 202 to 205 °C.

Consider `CCn1c(C(O)(c2ccccc2)c2ccccc2)nc(-c2ccncc2)c1-c1ccc(Cl)cc1` [Example 44, [5-(4-Chloro-phenyl)-1-ethyl-4-pyridin-4-yl-1H-imidazol-2-yl]-diphenyl-methanol], for which the melting point is 222 to 223 °C.

In the case of `CCn1c(-c2cc3ccccc3[nH]2)nc(-c2ccncc2)c1-c1ccc(Cl)cc1` [Example 33, 2-[5-(4-Chloro-phenyl)-1-ethyl-4-pyridin-4-yl-1H-imidazol-2-yl]-1H-indole], the melting point is 279 to 280 °C.

For the molecule `CCn1c(C(O)(Cc2ccccc2)Cc2ccccc2)nc(-c2ccncc2)c1-c1ccc(Cl)cc1` [Example 48, 2-[5-(4-Chloro-phenyl)-1-ethyl-4-pyridin-4-yl-1H-imidazol-2-yl]-1,3-diphenyl-propan-2-ol], the melting point lay within 116 to 117 °C.

The molecule `CCCn1c(-c2c(C)cc(C)cc2C)nc(-c2ccncc2)c1-c1ccc(C)cc1` [Example 51, 4-[1-Propyl-5-(4-methyl-phenyl)-2-(2,4,6-trimethyl-phenyl)-1H-imidazol-4-yl]-pyridine] yielded a melting point of 134 to 136 °C.

Molecule `CCn1c(-c2c(C)cc(C)cc2C)nc(-c2ccncc2)c1-c1ccc(Cl)cc1` [Example 12, 4-[5-(4-Chloro-phenyl)-1-ethyl-2-(2,4,6-trimethyl-phenyl)-1H-imidazol-4-yl]-pyridine] gave a melting point of 226 to 227 °C.

`CCn1c(-c2ccccc2Br)nc(-c2ccncc2)c1-c1ccc(Cl)cc1` [Example 16, 4-[2-(2-Bromo-phenyl)-5-(4-chloro-phenyl)-1-ethyl-1H-imidazol-4-yl]-pyridine]: the melting point lay in the range of 144 to 147 °C.

In turn, `CCCn1c(-c2c(Cl)cccc2Cl)nc(-c2ccncc2)c1-c1ccc(Cl)cc1` [Example 49, 4-[5-(4-Chloro-phenyl)-2-(2,6-dichloro-phenyl)-1-propyl-1H-imidazol-4-yl]-pyridine] came in with a melting point of 220 to 222 °C.

In the case of `CCn1c(-c2c(C)cccc2Cl)nc(-c2ccncc2)c1-c1ccc(Cl)cc1` [Example 17, 4-[2-(2-Chloro-6-methyl-phenyl)-5-(4-chloro-phenyl)-1-ethyl-1H-imidazol-4-yl]-pyridine], the melting point lay within 188 to 190 °C.

Take `C=CCn1c(-c2c(C)cc(C)cc2C)nc(-c2ccncc2)c1-c1ccc(C)cc1` [Example 23, 4-[1-Allyl-5-(4-methyl-phenyl)-2-(2,4,6-trimethyl-phenyl)-1H-imidazol-4-yl]-pyridine]: the melting point fell in the range of 115 to 118 °C.

Take `CCn1c(-c2ccc(C(F)(F)F)cc2C(F)(F)F)nc(-c2ccncc2)c1-c1ccc(Cl)cc1` [Example 30, 4-[2-(2,4-Bis-trifluoromethyl-phenyl)-5-(4-chloro-phenyl)-1-ethyl-1H-imidazol-4-yl]-pyridine]: the melting point was in the range of 148 to 150 °C.

The molecule `CCn1c(-c2c(C)cc(C)cc2C)nc(-c2ccncc2)c1-c1ccc(C(F)(F)F)cc1` [Example 13, 4-[1-Ethyl-5-(4-trifluoromethyl-phenyl)-2-(2,4,6-trimethyl-phenyl)-1H-imidazol-4-yl]-pyridine] had a melting point of 227 to 228 °C.

Consider `C=CCn1c(-c2c(Cl)cccc2Cl)nc(-c2ccncc2)c1-c1ccc(Cl)cc1` [Example 22, 4-[1-Allyl-5-(4-chloro-phenyl)-2-(2,6-dichloro-phenyl)-1H-imidazol-4-yl]-pyridine], for which the melting point fell in the range of 163 to 165 °C.

Molecule `CCn1c(-c2ccccc2C)nc(-c2ccncc2)c1-c1ccc(Cl)cc1` [Example 8, 4-[5-(4-Chloro-phenyl)-1-ethyl-2-(2-methyl-phenyl)-1H-imidazol-4-yl]-pyridine] had a melting point of 173 to 175 °C.

As to `C=CCn1c(-c2c(C)cc(C)cc2C)nc(-c2ccncc2)c1-c1ccc(C(F)(F)F)cc1` [Example 20, 4-[1-Allyl-5-(4-trifluoromethyl-phenyl)-2-(2,4,6-trimethyl-phenyl)-1H-imidazol-4-yl]-pyridine], the melting point was in the range of 209 to 210 °C.

On to `C=CCC(O)(CC=C)c1nc(-c2ccncc2)c(-c2ccc(Cl)cc2)n1CC` [Example 42, 4-[5-(4-Chloro-phenyl)-1-ethyl-4-pyridin-4-yl-1H-imidazol-2-yl]-hepta-1,6-dien-4-ol], for which the melting point lay in the range of 159 to 160 °C.

The molecule `C=CCn1c(-c2c(C)cc(C)cc2C)nc(-c2ccncc2)c1-c1ccc(Cl)cc1` [Example 21, 4-[1-Allyl-5-(4-chloro-phenyl)-2-(2,4,6-trimethyl-phenyl)-1H-imidazol-4-yl]-pyridine] yielded a melting point of 151 to 154 °C.

As for `CCn1c(C(c2cccc(F)c2)c2cccc(F)c2)nc(-c2ccncc2)c1-c1ccc(Cl)cc1` [Example 53, 4-[2-[Bis-(3-fluoro-phenyl)-methyl]-5-(4-chloro-phenyl)-1-ethyl-1H-imidazol-4-yl]-pyridine], the melting point lay in the range of 184 to 186 °C.

Take `CCn1c(C(O)(C(C)C)C(C)C)nc(-c2ccncc2)c1-c1ccc(Cl)cc1` [Example 41, 3-[5-(4-Chloro-phenyl)-1-ethyl-4-pyridin-4-yl-1H-imidazol-2-yl]-2,4-dimethyl-pentan-3-ol]: the melting point lay in the range of 221 to 223 °C.

The molecule `CCn1c(-c2c(OC)cc(OC)cc2OC)nc(-c2ccncc2)c1-c1ccc(Cl)cc1` [Example 18, 4-[5-(4-Chloro-phenyl)-1-ethyl-2-(2,4,6-trimethoxy-phenyl)-1H-imidazol-4-yl]-pyridine] displayed a melting point of 255 to 256 °C.

`CCn1c(-c2ccccc2)nc(-c2ccncc2)c1-c1ccc(Cl)cc1` [Example 9, 4-[5-(4-Chloro-phenyl)-1-ethyl-2-phenyl-1H-imidazol-4-yl]-pyridine] yielded a melting point of 267 to 270 °C.

The molecule `CCn1c(-c2c(Cl)cccc2Cl)nc(-c2ccnc(OC)c2)c1-c1ccc(Cl)cc1` [Example 55, 4-[5-(4-Chloro-phenyl)-2-(2,6-dichloro-phenyl)-1-ethyl-1H-imidazol-4-yl]-2-methoxy-pyridine] yielded a melting point of 138 to 140 °C.

Turning to `CCC(CC)c1nc(-c2ccncc2)c(-c2ccc(Cl)cc2)n1C` [Example 36, 4-[5-(4-Chloro-phenyl)-2-(1-ethyl-propyl)-1-methyl-1H-imidazol-4-yl]-pyridine], the melting point was in the range of 100 to 102 °C.

`CCn1c(C(OCCO)(c2cccc(C(F)(F)F)c2)c2cccc(C(F)(F)F)c2)nc(-c2ccncc2)c1-c1ccc(Cl)cc1` [Example 52, 2-[[5-(4-Chloro-phenyl)-1-ethyl-4-pyridin-4-yl-1H-imidazol-2-yl]-bis-(3-trifluoromethyl-phenyl)-methoxy]-ethanol] came in with a melting point of 222 to 223 °C.

As for `Cc1ccc(-c2c(-c3ccncc3)nc(-c3c(C)cc(C)cc3C)n2C)cc1` [Example 2, 4-[1-Methyl-5-(4-methyl-phenyl)-2-(2,4,6-trimethyl-phenyl)-1H-imidazol-4-yl]-pyridine], the melting point was in the range of 204 to 207 °C.

As to `OCCCn1c(-c2c(Cl)cccc2Cl)nc(-c2ccncc2)c1-c1ccc(Cl)cc1` [Example 29, 3-[5-(4-Chloro-phenyl)-2-(2,6-dichloro-phenyl)-4-pyridin-4-yl-imidazol-1-yl]-propan-1-ol], the melting point fell in the range of 233 to 235 °C.

In turn, `CCn1c(-c2ccccc2Cl)nc(-c2ccncc2)c1-c1ccc(Cl)cc1` [Example 15, 4-[5-(4-Chloro-phenyl)-2-(2-chloro-phenyl)-1-ethyl-1H-imidazol-4-yl]-pyridine] yielded a melting point of 144 to 147 °C.

On to `CCn1c(C(O)(c2cccc(C(F)(F)F)c2)c2cccc(C(F)(F)F)c2)nc(-c2ccncc2)c1-c1ccc(Cl)cc1` [Example 45, [5-(4-Chloro-phenyl)-1-ethyl-4-pyridin-4-yl-1H-imidazol-2-yl]-bis-(3-trifluoromethyl-phenyl)-methanol], for which the melting point fell in the range of 193 to 195 °C.

As for `CCn1c(-c2c(Cl)cccc2Cl)nc(-c2ccnc(Cl)c2)c1-c1ccc(Cl)cc1` [Example 54, 2-Chloro-4-[5-(4-chloro-phenyl)-2-(2,6-dichloro-phenyl)-1-ethyl-1H-imidazol-4-yl]-pyridine], the melting point was in the range of 187 to 189 °C.

Molecule `CCn1c(-c2c(C)cc(C)cc2C)nc(-c2ccncc2)c1-c1ccc(F)cc1` [Example 10, 4-[1-Ethyl-5-(4-fluoro-phenyl)-2-(2,4,6-trimethyl-phenyl)-1H-imidazol-4-yl]-pyridine] had a melting point of 194 to 196 °C.

For `CCn1c(-c2c(C)cc(C)cc2C)nc(-c2ccncc2)c1-c1ccc(Cl)cc1Cl` [Example 6, 4-[1-Ethyl-5-(2,4-dichloro-phenyl)-2-(2,4,6-trimethyl-phenyl)-1H-imidazol-4-yl]-pyridine], the melting point was in the range of 191 to 193 °C.
